Assay results reported in US9539222B2, “Methods to inhibit intracellular growth of bacteria and to treat bacteria-mediated diseases” (priority 2012, dated 2017).
Read-outs that look alike come from different tables or passages of the source.

Columns and labels:
[1] = tested on: reactive oxygen species (ROS); type: cell-based, human
Mycobacterium bovis BCG = type: cell-based; conditions: for difference from control (untreated infected cells) in mROS and BCG survival: THP1 cells or hMDM infected with BCG, 2 mM MET, 10 mM NAC or GSH, 24 hrs; for effect of ROS scavenger on Metformin-induced inhibition of growth of intracellular BCG: infected THP1 cells, 2 mM Metformin, 10 mM scavenger
mycobacterial phagosomes = type: cell-based, human
[2] = tested on: H37Rv strain of Mycobacterium tuberculosis (MTB); type: cell-based
BCG = assay: microbe, parasite or virus in culture; type: cell-based, Mycobacterium bovis BCG; conditions: for IC50: Mycobacterium tuberculosis variant bovis BCG, BCG, read-out: IC50 in MIC assay
[3] = tested on: Mycobacterium tuberculosis (MTB); assay: Acute infection model of MTB in C57BL/6 mice, lung and spleen bacillary load (CFU); type: in vivo
[4] = mice; cited from earlier work
[5] = 50 mg/Kg oral, 2-4 weeks of treatment

C=C(C)[C@H]1Cc2c(ccc3c2O[C@@H]2COc4cc(OC)c(OC)cc4[C@@H]2C3=O)O1 [rotenone]
production of cytoplasmic ROS (cROS), CM-H2DCFDA [1]: upregulated | production of mitochondrial ROS (mROS), MitoSox [1]: upregulated

CC(=O)N[C@@H](CS)C(=O)O [NAC, N-acetylcysteine]
difference from control (untreated infected cells) in mROS and BCG survival (Mycobacterium bovis BCG): not significant | effect of ROS scavenger on Metformin-induced inhibition of growth of intracellular BCG (Mycobacterium bovis BCG): abolishment | effect on Metformin-induced phagosomal acidification (mycobacterial phagosomes): prevented | difference from control in MTB survival (CFU) ([2]; […], 2 mM MET, 10 mM NAC or GSH, 24 hrs): not significant

N[C@@H](CCC(=O)N[C@@H](CS)C(=O)NCC(=O)O)C(=O)O [GSH, glutathione]
difference from control (untreated infected cells) in mROS and BCG survival (Mycobacterium bovis BCG): not significant | effect of ROS scavenger on Metformin-induced inhibition of growth of intracellular BCG (Mycobacterium bovis BCG): abolishment | difference from control in MTB survival (CFU) [2]: not significant

CNC1C(OC2C(OC3C(O)C(O)C(NC(=N)N)C(O)C3NC(=N)N)OC(C)C2(O)C=O)OC(CO)C(O)C1O (stereo not shown) [streptomycin, 5-(2,4-diguanidino-3,5,6-trihydroxy-cyclohexoxy)-4-[4,5-dihydroxy-6-(hydroxymethyl)-3-methylamino-tetrahydropyran-2-yl]oxy-3-hydroxy-2-methyl-tetrahydrofuran-3-carbaldehyde]
IC50 (BCG): ~0.2 µM

CO[C@H]1C[C@@H]2CC[C@@H](C)[C@@](O)(O2)C(=O)C(=O)N2CCCC[C@H]2C(=O)O[C@H]([C@H](C)C[C@@H]2CC[C@@H](O)[C@H](OC)C2)CC(=O)[C@H](C)/C=C(\C)[C@@H](O)[C@@H](OC)C(=O)[C@H](C)C[C@H](C)/C=C/C=C/C=C/1C [rapamycin]
IC50 (BCG): ~13.8 µM

CCCCc1oc2ccccc2c1C(=O)c1cc(I)c(OCCN(CC)CC)c(I)c1 [amiodarone, (2-{4-[(2-butyl-1-benzofuran-3-yl)carbonyl]-2,6-diiodophenoxy}ethyl)diethylamine]
direct anti-mycobacterial activity in MIC assay (BCG; in vitro BCG growth): showed inhibition of mycobacterial growth

CN(C)C(=N)NC(=N)N.Cl [Metformin, N,N-dimethyl imidodicarbonimidic diamide hydrochloride]
time in which inhibition of mycobacterial growth occurred (Mycobacterium bovis BCG; BCG-infected THP1 cells, 2 mM, no further reduction at later time points): ≤ 24 h | dose dependence of inhibition of intracellular mycobacteria (Mycobacterium bovis BCG; BCG-infected THP1 cells, CFU at 24 hrs): dose-dependent inhibition | mROS, time- and dose-dependent change [1]: increased significantly | production of cytoplasmic ROS (cROS), CM-H2DCFDA [1]: but not of cytoplasmic ROS (cROS) | production of mitochondrial ROS (mROS), MitoSox [1]: increased | dose dependence of inhibition of intracellular MTB [2]: dose-dependent inhibition

Oc1ccc(/C=C/c2cc(O)cc(O)c2)cc1 [Resveratrol, 3,5,4′-trihydroxy-trans-stilbene]
bacilli load in the lung compared to controls ([3]; 25 mg/Kg RES alone, oral): did not reduce | CFU in the lung compared to control [3, 5]: less CFU | CFU in the spleen compared to control [3, 5]: less CFU | Oral LD50 [4]: ~2000 mg/kg
